From US20110152332A1, “Pesticidal Heterocyclic Compounds” (Bayer CropScience AG, priority 2009, published 2011)

Key:
Format in all cases: in vivo
[1] = test system: Two-spotted spider mite (Tetranychus urticae); test: Test against two-spotted spider mite (Tetranychus urticae), spray; settings: active compound concentration 100 ppm; adult mites on kidney bean, sprayed; after 7 days
Experimental: (§1) Unless described otherwise, the test solutions were prepared as follows:
(§2) The active compound, 1 part by weight of the active compound was admixed with the solvent in the above described amount which contains the emulsifying agent in the above described amount. The mixture was then diluted with water to specific concentration.
(§3) In order to prepare the test solution containing the active compound, 1 part by weight of the active compound was admixed with 3 parts by weight of the solvent dimethyl formamide which contains 1 part by weight of the emulsifying agent polyoxyethylene alkylphenyl ether. This mixture is then diluted with water to the specific concentration.
(§4) Solvent: dimethyl formamide, 3 parts by weight; emulsifying agent: polyoxyethylene alkylphenyl ether, 1 part by weight
50 to 100 adult mites of Tetranychus urticae were inoculated to leaves of kidney bean at two-leaf stage planted in a pot of 6 cm in diameter. After one day, test solution at the appropriate concentration was sprayed thereon in a sufficient amount using a spray gun. After the spraying, the plant pot was placed inside a greenhouse, and after 7 days, the acaricidal activity was calculated. An acaricidal activity of 100% means that all mites were killed, whereas an acaricidal activity of 0% means that no mite was killed.

[2] = test system: Tobacco cutworm (Spodoptera litura) larvae; test: Test against tobacco cutworm (Spodoptera litura) larvae, leaf dip; settings: active compound concentration 100 ppm; third instar larvae on dipped sweet potato leaves; after 7 days
Experimental: as §1, §2, §3, §4
Leaves of sweet potato were immersed in the test solution at the appropriate concentration, and the leaves were dried in air. The leaves were then placed in a petri dish having a diameter of 9 cm, and ten Spodoptera litura at third instar larvae were released therein. The petri dishes were placed in a temperature-controlled chamber at 25° C. After 2 days and 4 days more sweet potato leaves were added. After 7 days, the number of dead larvae was counted to calculate the insecticidal activity. An insecticidal activity of 100% means that all larvae were killed, whereas an insecticidal activity of 0% means that no larva was killed. In the current test, the results of two petri dishes for each treatment were averaged.

[3] = test system: Cucurbit leaf beetle (Aulacophora femoralis); test: Test against cucurbit leaf beetle (Aulacophora femoralis), leaf dip; settings: active compound concentration 100 ppm; second instar larvae on dipped cucumber leaves; after 7 days
Experimental: as §1, §2, §3, §4
Leaves of cucumber were immersed in the test solution at the appropriate concentration, and the leaves were dried in air. The leaves were then put in a plastic cup containing sterilized black soil and five Aulacophora femoralis at second instar larvae were released in the cup. The cups were placed in a temperature-controlled chamber at 25° C. After 7 days, the number of dead larvae was counted, and thus the insecticidal activity was calculated. An insecticidal activity of 100% means that all larvae were killed, whereas an insecticidal activity of 0% means that no larva was killed.

| SMILES | acaricidal activity [1] [%] | insecticidal activity [2] [%] | insecticidal activity [3] [%] |
| --- | --- | --- | --- |
| CCC(=O)NC(C)c1ccc(N2CC(c3cc(Cl)c(Cl)c(Cl)c3)(C(F)(F)F)OC2=O)cc1 (racemic) [Compound 1-371, N-(1-{4-[2-oxo-5-(3,4,5-trichlorophenyl)-5-(trifluoromethyl)-1,3-oxazolidin-3-yl]phenyl}ethyl)propanamide] | 100 | 100 |  |
| O=C(NCc1ccc(N2CC(c3cc(Cl)cc(Cl)c3)(C(F)(F)F)OC2=O)cc1C(F)(F)F)C1CC1 (stereo not drawn) [Compound 1-5] |  | 100 | 100 |
| CCNC(=O)NCc1ccc(N2CC(c3cc(Cl)cc(Cl)c3)(C(F)(F)F)OC2=O)cc1C(F)(F)F (stereo not drawn) [Compound 1-13] |  | 100 |  |
| CC(C)(C)OC(=O)NCc1ccc(N2CC(c3cc(Cl)cc(Cl)c3)(C(F)(F)F)OC2=O)cc1C(F)(F)F (stereo not drawn) [Compound 1-14] |  | 100 | 100 |
| NCc1ccc(N2CC(c3cc(Cl)c(Cl)c(Cl)c3)(C(F)(F)F)OC2=O)cc1C(F)(F)F (stereo not drawn) [Compound 1-15] |  | 100 |  |
| CCCC(=O)NCc1ccc(N2CC(c3cc(Cl)c(Cl)c(Cl)c3)(C(F)(F)F)OC2=O)cc1C(F)(F)F (stereo not drawn) [Compound 1-18] |  | 100 |  |
| O=C(NCc1ccc(N2CC(c3cc(Cl)c(Cl)c(Cl)c3)(C(F)(F)F)OC2=O)cc1C(F)(F)F)C1CC1 (stereo not drawn) [Compound 1-19] |  | 100 | 100 |
| O=C(CC1CC1)NCc1ccc(N2CC(c3cc(Cl)c(Cl)c(Cl)c3)(C(F)(F)F)OC2=O)cc1C(F)(F)F (stereo not drawn) [Compound 1-20] |  | 100 |  |
| O=C(CC(F)(F)F)NCc1ccc(N2CC(c3cc(Cl)c(Cl)c(Cl)c3)(C(F)(F)F)OC2=O)cc1C(F)(F)F (stereo not drawn) [Compound 1-21] | 100 | 100 | 100 |
| CSCC(=O)NCc1ccc(N2CC(c3cc(Cl)c(Cl)c(Cl)c3)(C(F)(F)F)OC2=O)cc1C(F)(F)F (stereo not drawn) [Compound 1-22] |  | 100 | 100 |
| COCCC(=O)NCc1ccc(N2CC(c3cc(Cl)c(Cl)c(Cl)c3)(C(F)(F)F)OC2=O)cc1C(F)(F)F (stereo not drawn) [Compound 1-25] | 100 | 100 |  |
| CC(C)(C)OC(=O)NCc1ccc(N2CC(c3cc(Cl)c(Cl)c(Cl)c3)(C(F)(F)F)OC2=O)cc1C(F)(F)F (stereo not drawn) [Compound 1-28] |  | 100 | 100 |
| CCC(=O)NCc1ccc(N2CC(c3cc(Cl)c(Cl)c(Cl)c3)(C(F)(F)F)OC2=O)cc1Cl (stereo not drawn) [Compound 1-31] | 100 | 100 | 100 |
| CC(=O)NCc1ccc(N2CC(c3cccc(C(F)(F)F)c3)(C(F)(F)F)OC2=O)cc1C(F)(F)F (stereo not drawn) [Compound 1-72] |  | 100 | 100 |
| CCCC(=O)NCc1ccc(N2CC(c3cccc(C(F)(F)F)c3)(C(F)(F)F)OC2=O)cc1C(F)(F)F (stereo not drawn) [Compound 1-74] |  | 100 | 100 |
| O=C(NCc1ccc(N2CC(c3cccc(C(F)(F)F)c3)(C(F)(F)F)OC2=O)cc1C(F)(F)F)C1CC1 (stereo not drawn) [Compound 1-75] | 100 | 100 | 100 |
| O=C(CC1CC1)NCc1ccc(N2CC(c3cccc(C(F)(F)F)c3)(C(F)(F)F)OC2=O)cc1C(F)(F)F (stereo not drawn) [Compound 1-76] | 100 | 100 | 100 |
| O=C(CC(F)(F)F)NCc1ccc(N2CC(c3cccc(C(F)(F)F)c3)(C(F)(F)F)OC2=O)cc1C(F)(F)F (stereo not drawn) [Compound 1-77] |  | 100 | 100 |
| CC(=O)NCc1ccc(N2CC(c3cc(C(F)(F)F)cc(C(F)(F)F)c3)(C(F)(F)F)OC2=O)cc1C(F)(F)F (stereo not drawn) [Compound 1-128] |  | 100 | 100 |
| CCC(=O)NCc1ccc(N2CC(c3cc(C(F)(F)F)cc(C(F)(F)F)c3)(C(F)(F)F)OC2=O)cc1C(F)(F)F (stereo not drawn) [Compound 1-129] | 100 | 100 | 100 |
| O=C(NCc1ccc(N2CC(c3cc(C(F)(F)F)cc(C(F)(F)F)c3)(C(F)(F)F)OC2=O)cc1C(F)(F)F)C1CC1 (stereo not drawn) [Compound 1-131] |  | 100 | 100 |

| SMILES | acaricidal activity [1] [%] | insecticidal activity [2] [%] | insecticidal activity [3] [%] |
| --- | --- | --- | --- |
| O=C(CC(F)(F)F)NCc1ccc(N2CC(c3cc(C(F)(F)F)cc(C(F)(F)F)c3)(C(F)(F)F)OC2=O)cc1C(F)(F)F (stereo not drawn) [Compound 1-133] | 100 | 100 | 100 |
| CSCC(=O)NCc1ccc(N2CC(c3cc(C(F)(F)F)cc(C(F)(F)F)c3)(C(F)(F)F)OC2=O)cc1C(F)(F)F (stereo not drawn) [Compound 1-134] | 100 | 100 | 100 |
| CS(=O)(=O)CC(=O)NCc1ccc(N2CC(c3cc(C(F)(F)F)cc(C(F)(F)F)c3)(C(F)(F)F)OC2=O)cc1C(F)(F)F (stereo not drawn) [Compound 1-136] | 100 | 100 | 100 |
| COCCC(=O)NCc1ccc(N2CC(c3cc(C(F)(F)F)cc(C(F)(F)F)c3)(C(F)(F)F)OC2=O)cc1C(F)(F)F (stereo not drawn) [Compound 1-137] | 100 |  | 100 |
| CC(=O)NCc1ccc(N2CC(c3cc(C(F)(F)F)cc(C(F)(F)F)c3)(C(F)(F)F)OC2=O)cc1Cl (stereo not drawn) [Compound 1-142] |  | 100 | 100 |
| CCC(=O)NCc1ccc(N2CC(c3cc(C(F)(F)F)cc(C(F)(F)F)c3)(C(F)(F)F)OC2=O)cc1Cl (stereo not drawn) [Compound 1-143] |  | 100 | 100 |
| CSCC(=O)NCc1ccc(N2CC(c3cc(C(F)(F)F)cc(C(F)(F)F)c3)(C(F)(F)F)OC2=O)cc1Cl (stereo not drawn) [Compound 1-148] |  |  | 100 |
| C[S+]([O-])CC(=O)NCc1ccc(N2CC(c3cc(C(F)(F)F)cc(C(F)(F)F)c3)(C(F)(F)F)OC2=O)cc1Cl (stereo not drawn) [Compound 1-149] |  | 100 | 100 |
| COCCC(=O)NCc1ccc(N2CC(c3cc(C(F)(F)F)cc(C(F)(F)F)c3)(C(F)(F)F)OC2=O)cc1Cl (stereo not drawn) [Compound 1-151] |  | 100 |  |
| CC(=O)NCc1ccc(N2CC(c3cc(C(F)(F)F)cc(C(F)(F)F)c3)(C(F)(F)F)OC2=O)cc1C (stereo not drawn) [Compound 1-156] |  | 100 |  |
| CCC(=O)NCc1ccc(N2CC(c3cc(C(F)(F)F)cc(C(F)(F)F)c3)(C(F)(F)F)OC2=O)cc1C (stereo not drawn) [Compound 1-157] |  | 100 | 100 |
| COCCC(=O)NCc1ccc(N2CC(c3cc(C(F)(F)F)cc(C(F)(F)F)c3)(C(F)(F)F)OC2=O)cc1C (stereo not drawn) [Compound 1-165] |  | 100 | 100 |
| C[C@H](NC(=O)C1CC1)c1ccc(N2CC(c3cc(Cl)cc(Cl)c3)(C(F)(F)F)OC2=O)cc1 (stereo partly drawn) [Compound 1-345-a] | 100 | 100 |  |
| CC(=O)NC(C)c1ccc(N2CC(c3cc(Cl)c(Cl)c(Cl)c3)(C(F)(F)F)OC2=O)cc1 (stereo not drawn) [Compound 1-370] |  | 100 | 100 |
| CCC(=O)N[C@H](C)c1ccc(N2CC(c3cc(Cl)c(Cl)c(Cl)c3)(C(F)(F)F)OC2=O)cc1 (stereo partly drawn) [Compound 1-371-b] |  | 100 |  |
| C[C@H](NC(=O)C1CC1)c1ccc(N2CC(c3cc(Cl)c(Cl)c(Cl)c3)(C(F)(F)F)OC2=O)cc1 (stereo partly drawn) [Compound 1-373-a] | 100 | 100 | 100 |
| CC(NC(=O)C1CC1)c1ccc(N2CC(c3cc(Cl)c(Cl)c(Cl)c3)(C(F)(F)F)OC2=O)cc1 (stereo not drawn) [Compound 1-373] | 100 | 100 |  |
| CCC(=O)NC1CCc2cc(N3CC(c4cc(Cl)cc(Cl)c4)(C(F)(F)F)OC3=O)ccc21 (stereo not drawn) [Compound 4-3] |  | 100 |  |
| CCC(=O)NC1CCc2cc(N3CC(c4cc(Cl)c(Cl)c(Cl)c4)(C(F)(F)F)OC3=O)ccc21 (stereo not drawn) [Compound 4-31] | 100 | 100 | 100 |
| O=C(NC1CCc2cc(N3CC(c4cc(Cl)c(Cl)c(Cl)c4)(C(F)(F)F)OC3=O)ccc21)C1CC1 (stereo not drawn) [Compound 4-33] | 100 | 100 | 100 |
